Assay results as given in patent publication US9164084B2, “Methods for determining aggressiveness of a cancer and treatment thereof” (Purdue Research Foundation, priority 2012, dated 2015).
Entries after “also recorded” stand apart in the source; their conditions may differ.

What was measured:
PC-3 xenografts = assay: Mice bearing PC-3 xenografts treated with Avasimibe; type: in vivo
Description: To test the potential of using Avasimibe to treat advanced PCa in vivo, Avasimibe (15 mg/kg body weight by i.p. injection) was administered to the mice bearing PC-3 xenografts. Daily treatment of mice with the Avasimibe inhibited the growth of PC-3 tumors by ˜2 folds (FIG. 33), and induced ˜40% reduction in tumor weight by the end of 30-day treatment (FIG. 34).

PC-3 cells [1] = assay: Cell growth / viable cell number of PC-3 cells; type: cell-based, human
Description: Because cholesteryl ester accumulation was found in PCa but not in normal prostate, how cell viability could be affected by regulating cholesteryl ester levels with the ACAT inhibitor Avasimibe was evaluated. […] The inhibitory effect of Avasimibe on the growth of PC-3 and LNCaP-HP cells was considerably greater than that in cholesteryl ester poor cancer cells including LNCaP-LP, DU145, and C4-2.

LNCaP-HP cells [2] = assay: Cellular uptake of DiI-labeled LDL in LNCaP-HP cells; type: cell-based, human; conditions: 2-day treatment
Source text: (§1) Finally, it was investigated whether Avasimibe-mediated suppression of tumor growth is associated with the regulation of cholesterol metabolism machinery. It was hypothesized that abrogating ACAT activity would up-regulate cellular level of free cholesterol and then down-regulate SREBP and LDLr in PCa cells (FIG. 40). […] To provide an explanation for enhanced uptake of LDL and then storage of excess cholesterol in the form of cholesteryl ester in aggressive prostate cancer, it was noticed that LDL is the primary carrier of essential polyunsaturated fatty acid including arachidonic acid (AA). Inside cells, AA is converted to a wide range of eicosanoids, which have been implicated in various pathological processes such as inflammation and cancer.

PANC-1 cells = assay: Cell viability (ATP level) of PANC-1 cells; type: cell-based; conditions: 7.5 μM for various periods
Description: The cells were treated with […] (control) or 7.5 μM avasimibe for various periods. Then cells were lysed and ATP level were quantified to determine the number of viable cells.
As the ACAT-1 inhibitor, avasimibe, effectively removed lipid droplet or cholesteryl ester accumulation in pancreatic cancer cells, the use of avasimibe as a chemotherapy agent for pancreatic cancer was explored. The effects of avasimibe on cell viability in BxPC3 and PANC-1 cells were examined.

LNCaP-HP cells [3] = assay: Spectroscopic (SRL) imaging and Raman spectral analysis of lipid droplets in LNCaP-HP cells; type: cell-based, human
Description: The LNCaP-HP cells were treated with an ACAT inhibitor, avasimibe (structure shown in FIG. 13, Panel D), at 10 μM for 2 days.
A broad spectrum of human prostate epithelial cells has been examined. […] Loss of the tumor suppressor PTEN has been widely observed in both localized and metastatic prostate cancer and correlated with high Gleason grade. With loss of PTEN, PI3K signaling is hyper-activated, which, in turn, leads to AKT activation. […] AKT mediates the phosphorylation and activation of mTOR complex 1 (mTORC1) which plays critical roles in the regulation of protein and lipid biosynthesis. To determine whether the PI3K/AKT/mTOR pathway regulates cholesteryl ester accumulation, both types of cholesteryl ester rich cell lines, PC-3 and high passage LNCaP (LNCaP-HP), were treated with LY294002 (PI3K inhibitor), MK2206 (AKT inhibitor), and Rapamycin (mTOR inhibitor), respectively.
(§2) It is well known that LDL enters a cell via LDL receptor (LDLr) and traffics to the late endosome and lysosome where it is hydrolyzed to free fatty acids and free cholesterol. The excess free cholesterol together with the fatty acyl CoA substrate is then converted to cholesteryl ester by Acyl coenzyme A: cholesterol acyltransferase (ACAT) and stored in lipid droplets. Thus, cells were separately treated with Avasimibe and Sandoz 58-035, two different ACAT inhibitors. […] The significant reduction of cholesteryl ester accumulation upon Avasimibe treatment was further confirmed by an independent biochemical assay of cell lysates.

PC-3 cells [4] = assay: Standard biochemical assay of CE and free cholesterol in PC-3; type: cell-based, human; conditions: PC-3, 2-day treatment
Source text: as §2, §1

PC-3 cells [5] = assay: Flow cytometry analysis of cell cycle and apoptosis in PC-3 cells; type: cell-based, human
[6] = system: normal prostate RWPE1 cell; assay: Toxic effect on normal prostate RWPE1 cell; type: cell-based; conditions: at the same doses
[7] = system: pancreatic cancer cells (BxPC3 and PANC-1); assay: Western blot of pancreatic cancer cells before and after avasimibe treatment; type: cell-based; conditions: pancreatic cancer cells (FIG. 49)
Description: In order to understand how lipids accumulate in pancreatic cancer, several in vitro studies using two common pancreatic cancer cell lines, BxPC3 and PANC-1 were performed. Since ACAT is the enzyme responsible for the conversion from cholesterol to cholesteryl ester the effects of inhibiting ACAT-1, the universally expressed isoform, on lipid metabolism in pancreatic cancer cells were first examined. […] To explore the molecular mechanism, western blot of the cells before and after avasimibe treatment were performed.

PC-3 cells [8] = assay: Cellular uptake of DiI-labeled LDL in PC-3 cells; type: cell-based, human; conditions: PC-3, 2-day treatment
Source text: Because cholesterol can be either de novo synthesized via the mevalonate pathway or taken up from exogenous lipoproteins, the source of cholesterol used for cholesteryl ester accumulation was investigated. PC-3 cell were first treated with Simvastatin, an inhibitor of 3-hydroxy-3-methylglutaryl coenzyme A HMG-CoA reductase, the rate-limiting enzyme of the mevalonate pathway. […] In contrast, after treating cells with lipoprotein-deficient serum (LPDS), lipid droplets nearly disappeared in cholesteryl ester rich PC-3 and LNCaP-HP cells (FIG. 29, Panel A), but remained the same amount in cholesteryl ester poor cells including LNCaP-LP, DU145, and C4-2. Re-addition of low-density lipoprotein (LDL) into the LPDS medium restored lipid droplets and cholesteryl ester in both PC-3 and LNCaP-HP cells (FIG. 29, Panel B).
Finally, it was investigated whether Avasimibe-mediated suppression of tumor growth is associated with the regulation of cholesterol metabolism machinery. It was hypothesized that abrogating ACAT activity would up-regulate cellular level of free cholesterol and then down-regulate SREBP and LDLr in PCa cells (FIG. 40). […]

LNCaP-HP cells [9] = assay: Immunoblotting of SREBP and LDLr in LNCaP-HP cells; type: cell-based, human
Source text: as §1

PC-3 cells [10] = assay: Immunoblotting of SREBP and LDLr in PC-3 cells; type: cell-based, human
Source text: It has been shown that mTOR plays a key role in regulating the function of sterol regulatory element-binding proteins (SREBPs) which control lipid and cholesterol homeostasis. Specifically, when cellular sterol levels decrease, SREBP-1a and/or -2 precursors are cleaved to activate the expression of genes involved in de novo cholesterol synthesis and LDL-cholesterol uptake. […] Similar results for on LNCaP-HP cells were obtained.
as §1

Structure (SMILES): CC(C)c1cc(C(C)C)c(CC(=O)NS(=O)(=O)Oc2c(C(C)C)cccc2C(C)C)c(C(C)C)c1 [Avasimibe, avasimibe]
- increase of apoptosis (TUNEL IHC) (PC-3 xenografts; PC-3 tumor): ~2 folds
- reduction of proliferation (Ki67 IHC) (PC-3 xenografts; PC-3 tumor): ~70%
- cholesteryl ester content in PC-3 tumor (spectroscopic imaging of extracted tissues) (PC-3 xenografts; compared to vehicle-treated): significantly dropped
- tumor size compared to controls (PC-3 xenografts; mice (FIG. 33)): decreased tumor size
- body weight over the course of treatment (PC-3 xenografts; mice (FIG. 36)): remained steady
- pathological review of heart, kidney, liver, lung, and spleen (PC-3 xenografts; mice receiving Avasimibe): no signs of toxicity
- appearance of harvested tumors (PC-3 xenografts; mice, 15 mg/kg i.p. daily): less bloody in appearance
- reduction in tumor weight (PC-3 xenografts; mice, 15 mg/kg i.p. daily, end of 30-day treatment): ~40%
- inhibition of growth of PC-3 tumors (PC-3 xenografts; mice, 15 mg/kg i.p., daily treatment): ~2 folds
- general toxicity (animal behavior, body weight) (PC-3 xenografts; mouse, in vivo, ip, 15 mg/kg): did not cause general toxicity
- IC50 (PC-3 cells [1]; Homo sapiens, 72 h, PC-3 cell, 3 days): 7.32 µM
- cytotoxicity at 7.5 µM (PC-3 cells [1]; Homo sapiens, 72 h, PC-3 cells, 3 days of 7.5 μM, read-out: reduction in viable cell number): ~48%
- proliferation (viable cell number) (PC-3 cells [1]; PC-3 cells (FIG. 31)): significantly hampered the proliferation
- uptake of DiI-labeled LDL (LNCaP-HP cells [2]): drastically inhibited LDL uptake
- cell viability (ATP level) (PANC-1 cells): significantly reduced cell viability
- cell viability (ATP level) (PANC-1 cells; listed as avasimibe): significantly reduced the viability; also recorded: dramatically reduced the cell viability
- lipid droplet amount (LNCaP-HP cells [3]): remaining unchanged
- accumulation of cholesteryl ester in lipid droplets (702 cm^-1 Raman peak) (LNCaP-HP cells [3]; 10 μM for 2 days): completely blocked the accumulation of CHOLESTERYL ESTER
- cell morphology (LNCaP-HP cells [3]; 10 μM for 2 days): reversed the cell morphology to that of LNCaP-LP cells
- cholesteryl ester accumulation (LNCaP-HP cells [3]; ACAT inhibitor treatment): effectively suppressed cholesteryl ester accumulation
- level of CE (PC-3 cells [4]): reduced the level of CE
- level of free cholesterol (PC-3 cells [4]): slightly increased the level of free cholesterol
- G2/M phase population compared to control group (PC-3 cells [5]): 2 times smaller
- sub G0/G1 population compared to control group (PC-3 cells [5]): ~3 times larger
- toxic effect on normal prostate cell [6]: no toxic effect
- HMGCoA reductase level (western blot) [7]: significantly reduced the level of HMGCoA reductase
- HMGCoA reductase level (western blot) ([7]; listed as avasimibe): reduced the expression of HMGCoA reductase
- LDL receptor level (western blot) ([7]; listed as avasimibe): not affected
- uptake of DiI-labeled LDL (PC-3 cells [8]): drastically inhibited LDL uptake
- LDLr level (immunoblot) (LNCaP-HP cells [9]): down-regulation
- SREBP-2 level (immunoblot) (LNCaP-HP cells [9]): down-regulation
- LDLr level (immunoblot) (PC-3 cells [10]): down-regulation
- SREBP-1 level (immunoblot) (PC-3 cells [10]): down-regulation
